Assays:
Hoxa9 and Meis 1 = experiment: qRT-PCR of MLL fusion downstream targets; format: cell-based; settings: qRT-PCR in MLL-AF9 BMC, FIG. 10
From the text: FIG. 10. […] B. qRT-PCR performed in MLL-AF9 BMC for Compound 175.

[1] = test system: MLL-AF9 transformed mouse bone marrow cells (BMC); experiment: MTT cell viability assay in transformed BMC; format: cell-based; settings: 72 h incubation, E2H-HLF transformed BMC as negative control, FIG. 3
[2] = target: T1, menin-MLL-AF9 interaction (Homo sapiens, UniProt O00255); experiment: Co-Immunoprecipitation (co-IP) in HEK293 cells transfected with MLL-AF9; format: cell-based; settings: HEK293 cells transfected with MLL-AF9, FIG. 2
T1 construct: performed in HEK293 cells transfected with MLL-AF9; endogenous in cells; host or cells: HEK293 cells (transfected with MLL-AF9)
T1 sequence (O00255 1-610): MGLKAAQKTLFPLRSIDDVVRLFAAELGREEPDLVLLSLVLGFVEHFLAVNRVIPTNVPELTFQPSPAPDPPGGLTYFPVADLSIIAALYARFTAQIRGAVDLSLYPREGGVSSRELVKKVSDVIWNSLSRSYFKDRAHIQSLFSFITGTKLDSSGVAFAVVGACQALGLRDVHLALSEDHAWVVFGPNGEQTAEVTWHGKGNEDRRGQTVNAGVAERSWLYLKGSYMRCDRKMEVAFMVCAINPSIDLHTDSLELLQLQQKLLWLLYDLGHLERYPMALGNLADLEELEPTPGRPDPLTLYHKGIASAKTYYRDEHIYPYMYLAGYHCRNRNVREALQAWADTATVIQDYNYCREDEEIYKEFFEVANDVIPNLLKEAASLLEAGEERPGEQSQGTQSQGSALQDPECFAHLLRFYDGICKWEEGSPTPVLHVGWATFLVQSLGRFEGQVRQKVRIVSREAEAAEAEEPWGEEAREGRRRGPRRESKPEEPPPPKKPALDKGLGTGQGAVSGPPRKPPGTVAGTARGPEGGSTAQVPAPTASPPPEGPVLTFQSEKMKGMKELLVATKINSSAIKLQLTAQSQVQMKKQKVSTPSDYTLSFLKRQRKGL

menin-MLL interaction = target: T2, menin-MLL interaction (Homo sapiens, UniProt O00255); experiment: biochemical
T2 sequence (O00255 1-610): T1 sequence (O00255 1-610)
From the text: Compounds that inhibit the interaction decrease the fluorescence anisotropy which is being used as a read-out for compound screening and for IC50 determination.

Row | SMILES | IC50 (menin-MLL interaction) [nM] | also measured
1 | CC1(C)CN=C(N2CCN(c3ncnc4sc(CC(F)(F)F)cc34)CC2)S1 [Compound 1, 4-(4-(5,5-dimethyl-4,5-dihydrothiazol-2-yl)piperazin-1-yl)-6-(2,2,2-trifluoroethyl)thieno[2,3-d]pyrimidine] |  | expression of Hoxa9 and Meis 1 (Hoxa9 and Meis 1): downregulate expression of downstream targets of MLL fusion proteins; inhibition of proliferation [1]: selectively inhibit proliferation of MLL leukemia cells; inhibition of the menin-MLL-AF9 interaction [2]: inhibition of the menin-MLL-AF9 interaction
2 | CCCC(c1ccc(CC(=O)N2CCN(c3ncnc4sc(CC(F)(F)F)cc34)CC2)cc1)S(C)(=O)=O (stereo not drawn) [Compound 98] | 500 to 2000 | 
3 | FC(F)(F)Cc1cc2c(NCC3CCN(Cc4ccccc4)CC3)ncnc2s1 [Compound 277] | 500 to 2000 | 
4 | N#Cc1cc2cc(CN3CCC(Nc4ncnc5sc(CC(F)(F)F)cc45)CC3)ccc2n1CCn1cccn1 [Compound 196] | < 100 | 
5 | O=C(Cc1ccc(NS(=O)(=O)CNCC(F)(F)F)cc1)N1CCN(c2ncnc3sc(CC(F)(F)F)cc23)CC1 [Compound 62] | < 100 | 
6 | CNCCS(=O)(=O)Nc1ccc(CC(=O)N2CCN(c3ncnc4sc(CC(F)(F)F)cc34)CC2)cc1 [Compound 58] | < 100 | 
7 | CN(C)S(=O)(=O)Nc1ccc(CC(=O)N2CCN(c3ncnc4sc(CC(F)(F)F)cc34)CC2)cc1 [Compound 51] | < 100 | 
8 | Cc1c(CN2CCC(Nc3ncnc4sc(CC(F)(F)F)cc34)CC2)ccc2c1cc(C#N)n2Cc1ncc[nH]1 [Compound 332] | < 100 | 
9 | N#Cc1ccc(N2CCC(N3CCN(c4ncnc5sc(CC(F)(F)F)cc45)CC3)CC2)cc1 [Compound 13] | 100 to 500 | 
10 | N#Cc1cc2cc(CN3CCC(Nc4ncnc5sc(CC(F)(F)F)cc45)CC3)ccc2n1Cc1c[nH]nn1 [Compound 195] | < 100 | 
11 | Cn1ccnc1Cn1c(C#N)cc2cc(CN3CCC(Nc4ncnc5sc(CC(F)(F)F)cc45)CC3)ccc21 [Compound 203] | < 100 | 
12 | CCCc1cc2c(NC3CCN(Cc4ccccc4)CC3)ccnc2s1 [Compound 282] | 500 to 2000 | 
13 | FC(F)(F)Cc1cc2c(NC3CCN(Cc4ccsc4)CC3)ncnc2s1 [Compound 133] | 100 to 500 | 
14 | FC(F)(F)Cc1cc2c(N[C@H]3CCN(Cc4ccccc4)C[C@@H]3NCC3CCCC3)ncnc2s1 [Compound 169] | 100 to 500 | 
15 | CCCc1cc2c(N3CCN(C4CCCCCC4)CC3)ncnc2s1 [Compound 31] | 500 to 2000 | 
16 | N#Cc1cc2cc(CN3CCC(Nc4ncnc5sc(CC(F)(F)F)cc45)CC3)ccc2n1Cc1cc(OCCCC2CCCC2)n[nH]1 [Compound 416] | 100 to 500 | 
17 | N#Cc1cc2cc(CN3CCC(Nc4c(C#N)cnc5sc(CC(F)(F)F)cc45)CC3)ccc2[nH]1 [Compound 279] | < 100 | 
18 | Cc1c(CN2CCC(Nc3ncnc4sc(CC(F)(F)F)cc34)CC2)ccc2c1cc(C#N)n2CCN1CCN(C(=O)CC2CCCCC2)CC1 [Compound 343] | < 100 | 
19 | Nc1ccccc1CN1CCC(Nc2ncnc3sc(CC(F)(F)F)cc23)CC1 [Compound 113] | 100 to 500 | 
20 | COc1ccc(CN2CCC(CNc3ncnc4sc(CC(F)(F)F)cc34)CC2)cc1 [Compound 273] | 500 to 2000 | 
21 | Cc1c(CN2CCC(Nc3ncnc4sc(CC(F)(F)F)cc34)CC2)ccc2c1cc(C#N)n2CC(O)(CO)CC1CCCCC1 (stereo not drawn) [Compound 348] | < 100 | 
22 | CC(C)S(=O)(=O)Nc1ccc(CC(=O)N2CCN(c3ncnc4sc(CC(F)(F)F)cc34)CC2)cc1 [Compound 56] | < 100 | 
23 | FC(F)(F)Cc1cc2c(N3CCN(c4nnc(CC5CCCCC5)s4)CC3)ncnc2s1 [Compound 39] | 500 to 2000 | 
24 | N#Cc1cc2cc(CN3CCC(Nc4ncnc5sc(CC(F)(F)F)cc45)CC3)ccc2n1CC(CO)OC1CC1 (stereo not drawn) [Compound 222] | < 100 | 
25 | Cc1c(CN2CCC(Nc3ncnc4sc(CC(F)(F)F)cc34)CC2)ccc2c1cc(C#N)n2CC(N)=O [Compound 301] | < 100 | 
26 | N#Cc1nc2cc(CN3CCC(Nc4ncnc5sc(CC(F)(F)F)cc45)CC3)ccc2[nH]1 [Compound 249] | 500 to 2000 | 
27 | N#Cc1cc2cc(CN3CCC(Nc4ncnc5sc(CC(F)(F)F)cc45)CC3)ccc2n1Cc1cc(OCCCC2CC2)n[nH]1 [Compound 414] | 100 to 500 | 
28 | Cc1nc(Cn2c(C#N)cc3cc(CN4CCC(Nc5ncnc6sc(CC(F)(F)F)cc56)CC4)ccc32)cs1 [Compound 201] | < 100 | 

Row | SMILES | IC50 (menin-MLL interaction) [nM] | also measured
29 | N#Cc1cc2c(F)c(CN3CCC(Nc4ncnc5sc(CC(F)(F)F)cc45)CC3)ccc2[nH]1 [Compound 184] | < 100 | 
30 | CS(=O)(=O)N(CC#N)c1ccc(C(F)(F)C(=O)N2CCN(c3ncnc4sc(CC(F)(F)F)cc34)CC2)cc1 [Compound 104] | 500 to 2000 | 
31 | FC(F)(F)Cc1cc2c(NC3CCN(Cc4ccc[nH]4)CC3)ncnc2s1 [Compound 131] | 100 to 500 | 
32 | CCOc1cc2c(cc1CN1CCC(Nc3ncnc4sc(CC(F)(F)F)cc34)CC1)cc(C#N)n2C[C@H](O)CO [Compound 217] | < 100 | 
33 | N#Cc1cc2cc(CN3CCC(Nc4ncnc5sc(CC(F)(F)F)cc45)CC3)ccc2n1CCn1ccnn1 [Compound 207] | < 100 | 
34 | COCc1cnc2sc(CC(F)(F)F)cc2c1NC1CCN(Cc2ccc3[nH]c(C#N)cc3c2)CC1 [Compound 281] | 100 to 500 | 
35 | Cc1c(CN2CCC(Nc3ncnc4sc(CC(F)(F)F)cc34)CC2)c(O)cc2c1cc(C#N)n2Cc1c[nH]nn1 [Compound 391] | < 100 | 
36 | FC(F)(F)Cc1cc2c(NC3CCN(Cc4cccs4)CC3)ncnc2s1 [Compound 132] | 100 to 500 | 
37 | FC(F)(F)Cc1cc2c(NC3CCN(Cc4ccc(C(F)(F)F)cc4)CC3)ncnc2s1 [Compound 146] | 500 to 2000 | 
38 | NS(=O)(=O)c1ccc(CN2CCC(CNc3ncnc4sc(CC(F)(F)F)cc34)CC2)cc1 [Compound 262] | 100 to 500 | 
39 | N#Cc1cc2cc(CN3CCC(Nc4ncnc5sc(CC(F)(F)F)cc45)CC3)c(O)cc2n1Cc1cn[nH]c1 [Compound 382] | < 100 | 
40 | Cc1c(CN2CCC(Nc3ncnc4sc(CC(F)(F)F)cc34)CC2)ccc2c1cc(C#N)n2CCN1CCNC(C)C1 (stereo not drawn) [Compound 369] | < 100 | 
41 | N#Cc1cc2cc(CN3CCC(Nc4ncnc5sc(CC(F)(F)F)cc45)CC3)ccc2n1CC(=O)NC1CC1 [Compound 291] | < 100 | 
42 | O=C(CCc1ccccc1)N1CCN(c2ncnc3sc(CC(F)(F)F)cc23)CC1 [Compound 88] | 500 to 2000 | 
43 | Cc1c(CN2CCC(Nc3ncnc4sc(CC(F)(F)F)cc34)CC2)ccc2c1cc(C#N)n2CCN1CCN(C(=O)CCC(F)(F)F)CC1 [Compound 342] | < 100 | 
44 | Cc1c(CN2CCC(Nc3ncnc4sc(CC(F)(F)F)cc34)CC2)ccc2c1cc(C#N)n2Cc1cnn(C)c1 [Compound 379] | < 100 | 
45 | Cc1c(CN2CCC(Nc3ncnc4sc(CC(F)(F)F)cc34)CC2)ccc2c1cc(C#N)n2CC(CO)OC(C)C (stereo not drawn) [Compound 302] | < 100 | 
46 | FC(F)(F)Cc1cc2c(NCC3CCN(Cc4ccc(OC(F)(F)F)cc4)CC3)ncnc2s1 [Compound 271] | 500 to 2000 | 
47 | N#Cc1cc2cc(CN3CCC(Nc4ncnc5sc(CC(F)(F)F)cc45)CC3)ccc2n1CS(N)(=O)=O [Compound 210] | < 100 | 
48 | NS(=O)(=O)c1ccc(CN2CCC(CNc3ncnc4sc(CC(F)(F)F)cc34)CC2)c(Cl)c1 [Compound 253] | 100 to 500 | 
49 | FC(F)(F)Cc1cc2c(NC3CCN(Cc4c[nH]c5ccccc45)CC3)ncnc2s1 [Compound 243] | 100 to 500 | 
50 | NCc1ccc(CN2CCC(CNc3ncnc4sc(CC(F)(F)F)cc34)CC2)cc1 [Compound 265] | 500 to 2000 | 
51 | CS(=O)(=O)N(CC#N)c1ccc(CC(=O)N2CCN(c3ncnc4sc(CC(F)(F)F)cc34)CC2)cc1 [Compound 61] | < 100 | 
52 | FC(F)(F)Cc1cc2c(NCC3CCN(Cc4ccc(C(F)(F)F)cc4Cl)CC3)ncnc2s1 [Compound 268] | 500 to 2000 | 
53 | COc1cc2[nH]c(C#N)cc2c(C)c1CN1CCC(Nc2ncnc3sc(CC(F)(F)F)cc23)CC1 [Compound 383] | < 100 | 
54 | Cc1c(CN2CCC(Nc3ncnc4sc(CC(F)(F)F)cc34)CC2)ccc2c1cc(C#N)n2CCn1cncn1 [Compound 304] | < 100 | 
55 | FC(F)(F)Cc1cc2c(NCC3CCN(Cc4ccc(N5CCCCC5)cc4)CC3)ncnc2s1 [Compound 255] | 100 to 500 | 

Reference: patent US9505781B2, “Compositions comprising thienopyrimidine and thienopyridine compounds and methods of use thereof” (The Regents of the University of Michigan, priority 2013, dated 2016)
